Measurements: ChEMBL document CHEMBL1201862, “PubChem BioAssay data set” (2004)
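Interpolation was linear, between the two tested concentrations surrounding the appropriate level; five concentrations were tested over 48 hours in 96-well plates. At the GI50, growth is halved.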 Active and inactive are the calls of the source. No stated cut-off is given here; in the data, active = GI50 up to about 1.1 µM and inactive = higher.

What was measured:
Test in all cases: NCI anticancer screen, dose series, 48 h
786-0 = test system: 786-0
A498 = test system: A498
A549 = test system: A549
CAKI-1 = test system: CAKI-1
COLO 205 = test system: COLO 205
EKVX = test system: EKVX
IGROV-1 = test system: IGROV-1
K562 = test system: K562
M19-MEL = test system: M19-MEL
NCI-H226 = test system: NCI-H226
OVCAR-5 = test system: OVCAR-5
SF-268 = test system: SF-268
SK-MEL-28 = test system: SK-MEL-28
SK-MEL-5 = test system: SK-MEL-5
SN12C = test system: SN12C
SNB-75 = test system: SNB-75
HCT-15 = test system: HCT-15

| Structure (SMILES) | GI50 (786-0) | GI50 (A498) | GI50 (A549) | GI50 (CAKI-1) | GI50 (COLO 205) | GI50 (EKVX) | GI50 (IGROV-1) | GI50 (K562) | GI50 (M19-MEL) | GI50 (NCI-H226) | GI50 (OVCAR-5) | GI50 (SF-268) | GI50 (SK-MEL-28) | GI50 (SK-MEL-5) | GI50 (SN12C) | GI50 (SNB-75) | GI50 (HCT-15) |
| --- | --- | --- | --- | --- | --- | --- | --- | --- | --- | --- | --- | --- | --- | --- | --- | --- | --- |
| CCC(=O)OC1CCn2c1nc1c2C(=O)C(C)=C(NC(C)=O)C1=O (centres undefined) | 3.48 µM (inactive) | 18.4 µM (inactive) | 2.05 µM (inactive) | 1.92 µM (inactive) | 3.52 µM (inactive) | 2.03 µM (inactive) | 2.19 µM (inactive) | 1.87 µM (inactive) | 1.76 µM (inactive) | 1.69 µM (inactive) | 1.92 µM (inactive) | 1.74 µM (inactive) | 2.22 µM (inactive) | 1.83 µM (inactive) | 1.79 µM (inactive) | 5.01 µM (inactive) | – |
| Cc1ccc(/C=C/C(=O)c2sc(-n3nc(-c4ccccc4)cc3-c3ccccc3)nc2C)cc1 | > 100 µM (inactive) | > 100 µM (inactive) | > 100 µM (inactive) | 12.4 µM (inactive) | > 100 µM (inactive) | 34.8 µM (inactive) | > 100 µM (inactive) | 77.8 µM (inactive) | > 100 µM (inactive) | > 100 µM (inactive) | > 100 µM (inactive) | > 100 µM (inactive) | > 100 µM (inactive) | 71.1 µM (inactive) | > 100 µM (inactive) | 4.26 µM (inactive) | 57.7 µM |
| CC(C)N(C(=O)C12C3C4C5C3C1(C#N)C5C42)C(C)C (centres undefined) | > 100 µM (inactive) | > 100 µM (inactive) | > 100 µM (inactive) | > 100 µM (inactive) | > 100 µM (inactive) | > 100 µM (inactive) | > 100 µM (inactive) | > 100 µM (inactive) | > 100 µM (inactive) | > 100 µM (inactive) | > 100 µM (inactive) | > 100 µM (inactive) | > 100 µM (inactive) | > 100 µM (inactive) | > 100 µM (inactive) | > 100 µM (inactive) | > 100 µM |
| O=C1C(=O)N(c2ccc(Cl)cc2Cl)C(=O)C(=O)C1c1nc2ccccc2s1 | > 100 µM (inactive) | > 100 µM (inactive) | > 100 µM (inactive) | 64.1 µM (inactive) | > 100 µM (inactive) | > 79.8 µM (inactive) | > 100 µM (inactive) | 31 µM (inactive) | > 100 µM (inactive) | > 74.8 µM (inactive) | > 100 µM (inactive) | > 56.4 µM (inactive) | > 87.9 µM (inactive) | 65.2 µM (inactive) | > 100 µM (inactive) | 20.9 µM (inactive) | > 89.1 µM |
| CCOP1(=O)C=C(C)C(=C(Cl)Cl)C(C)=C1 (centres undefined) | 23.7 µM (inactive) | 19.2 µM (inactive) | 8.28 µM (inactive) | 11.6 µM (inactive) | 11.7 µM (inactive) | 18.9 µM (inactive) | 24 µM (inactive) | 3.52 µM (inactive) | 8.07 µM (inactive) | 2.39 µM (inactive) | – | 9.57 µM (inactive) | 22.5 µM (inactive) | 5.9 µM (inactive) | 15 µM (inactive) | 3.33 µM (inactive) | 8.79 µM |
| COc1ccc2cc3c4cc(OC)c(OC)cc4ccn3c2c1 | > 100 µM (inactive) | > 100 µM (inactive) | > 100 µM (inactive) | > 100 µM (inactive) | > 100 µM (inactive) | > 100 µM (inactive) | > 100 µM (inactive) | > 100 µM (inactive) | > 100 µM (inactive) | > 100 µM (inactive) | > 100 µM (inactive) | > 100 µM (inactive) | > 100 µM (inactive) | > 100 µM (inactive) | > 100 µM (inactive) | – | – |
| O=C(NCCOC(=O)CCCCCCCCC(=O)OCCNC(=O)NC(=O)c1cn(Cc2ccccc2)c(=O)[nH]c1=O)NC(=O)c1cn(Cc2ccccc2)c(=O)[nH]c1=O | > 100 µM (inactive) | > 100 µM (inactive) | > 100 µM (inactive) | > 100 µM (inactive) | > 100 µM (inactive) | > 100 µM (inactive) | > 100 µM (inactive) | > 100 µM (inactive) | > 100 µM (inactive) | > 100 µM (inactive) | > 100 µM (inactive) | > 100 µM (inactive) | > 100 µM (inactive) | > 100 µM (inactive) | > 100 µM (inactive) | > 100 µM (inactive) | > 100 µM |
| CC1(C)OC(=O)[C@@](C)([C@H](O)c2ccccc2)O1 | > 100 µM (inactive) | > 100 µM (inactive) | 83.2 µM (inactive) | 46.3 µM (inactive) | – | > 100 µM (inactive) | 94.6 µM (inactive) | 67.9 µM (inactive) | > 100 µM (inactive) | 27.6 µM (inactive) | – | > 100 µM (inactive) | > 10 µM (inactive) | 40.1 µM (inactive) | > 100 µM (inactive) | 65 µM (inactive) | – |
